The nature of series [1]: Second-order kinetic rate constant of the reaction between alkanolamine and CO2 (no enzyme). In kind it is physicochemical.
The conditions of series [2]: cited from earlier work.
The conditions of series [3]: forward reaction with CO2; 2 kmol/m^3 MDEA solution at 298 K; cited from earlier work.

Several values for one entry are separate records, joined by “and”; a condition that tells them apart may be missing. Identical values can stand only once. Like-named read-outs stand apart in the source and are kept apart here.

Take `CN(C)CCO` [DMMEA, dimethylethanolamine]: the “k2, second-order kinetic rate constant of the reaction between amine and CO2” value (shortened to “k2, second-order kinetic rate constant”) is 19.5 m^3 kmol^−1 s^−1 in series [1] (amine concentration 1.0 kmol m^−3) and 18.8 m^3 kmol^−1 s^−1 in series [1] (amine concentration 2.0 kmol m^−3). Moreover, the pKa in series [2] (Table 3) is 9.2; in series [2] (Table 4), 9.2; in series [2] (Table 14), 9.22.

In the case of `CC(O)CN(CC(C)O)CC(C)O` (stereo not shown) [TIPA, tri-isopropanolamine], the “k2, second-order kinetic rate constant” value in series [1] is 1.02 m^3 kmol^−1 s^−1 and 0.79 m^3 kmol^−1 s^−1.

For `O` [OH^−, hydroxide], in series [3], the “1st order rate constant” value is 23.8 s⁻¹ and the “2nd order rate constant” value is reported as 8.35 m^3mol^−1s^−1.

As to `O` [H2O, water], the “1st order rate constant” value in series [3] is 0.026 s⁻¹.

Consider `CCN(CC)CCO` [DEMEA, diethylethanolamine], for which the “k2, second-order kinetic rate constant” value in series [1] is 33.0 m^3 kmol^−1 s^−1 and 35.5 m^3 kmol^−1 s^−1 and 33.1 m^3 kmol^−1 s^−1.

For orientation: pKa means the negative logarithm of the acid dissociation constant.

The values are drawn from patent publication US20140106440A1, “ENHANCED ENZYMATIC CO2 CAPTURE TECHNIQUES ACCORDING TO SOLUTION PKA, TEMPERATURE AND/OR ENZYME CHARACTER” (CO2 SOLUTIONS INC., priority 2011, published 2014).
